Assay results published in paper PMC4626375, “In Vitro Mutational and Bioinformatics Analysis of the M71 Odorant Receptor and Its Superfamily” (PLoS ONE, 2015).

Legend:
M71 odorant receptor [1] = target: T1, M71 odorant receptor (Mus musculus, UniProt Q60893); assay: patch clamp of dendritic knobs of M71- or M71::GFP-expressing olfactory sensory neurons, dose response; format: cell-based; design: gene Or8a1; full-length M71 and M71::GFP C-terminal fusion expressed in olfactory sensory neurons
T1 sequence (Q60893 1-309): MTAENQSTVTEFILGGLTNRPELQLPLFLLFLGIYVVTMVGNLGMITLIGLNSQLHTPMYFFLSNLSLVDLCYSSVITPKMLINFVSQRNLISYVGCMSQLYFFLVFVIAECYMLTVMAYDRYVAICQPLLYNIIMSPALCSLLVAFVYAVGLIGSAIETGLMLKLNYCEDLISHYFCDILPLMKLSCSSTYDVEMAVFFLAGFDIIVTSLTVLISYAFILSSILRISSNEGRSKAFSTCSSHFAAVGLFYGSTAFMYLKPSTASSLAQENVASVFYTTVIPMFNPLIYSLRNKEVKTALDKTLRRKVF

M71 odorant receptor [2] = target: T1, M71 odorant receptor; design: gene Or8a1

| SMILES | EC50 (M71 odorant receptor [1]) [nM] | patch clamp of dendritic knobs of olfactory sensory neurons, peak current at 10 (M71 odorant receptor [2]) |
| --- | --- | --- |
| CC(=O)c1ccccc1N [2aACP, 2-amino acetophenone] | 650 ± 80 |  |
| CCc1occc(=O)c1O [eMLT, ethyl maltol] |  | olfactory neurons expressing either M71 or M71::GFP are activated by M71 specific ligands |
